Article PMC11672137, “High-Affinity Lectin Ligands Enable the Detection of Pathogenic Pseudomonas aeruginosa Biofilms: Implications for Diagnostics and Therapy” (JACS Au, 2024)

Legend:
[1] = system: P. aeruginosa PAO1 biofilms; assay: In vitro biofilm staining under flow conditions, compound supplementation to the medium; type: cell-based, Pseudomonas aeruginosa; details: 3 mL/h
Protocol: (§1) P. aeruginosa biofilms were grown under flow conditions and observed by fluorescence microscopy in analogy to Ghanbari et al.[66] To this end, P. aeruginosa PAO1 expressing the red fluorescent protein mCherry[56] was diluted to an OD600 nm of 0.1 and injected into the microfluidics device. After a 30-min settling period, biofilms were grown under a constant laminar flow rate of 3 mL/h per channel. Following 48 h of incubation at 30 °C, dense and mature P. aeruginosa PAO1 biofilms were observed, which were then further used for analysis of the imaging probes.
To circumvent these technical drawbacks, the addition of compounds to the medium reservoir and retention at the biofilm was pursued. Imaging compounds were added to the medium reservoirs at a concentration of 500 nM, which were continuously pumped (3 mL/h) through the flow cell for 4 h. Compound accumulation at mature P. aeruginosa biofilms was immediately analyzed using fluorescence microscopy. Afterwards, the medium was exchanged, and the biofilms were washed for 30 min (3 mL/h, no compound) to monitor the retention (Figure 5). Furthermore, an analysis using CLSM was also performed after 4 h of accumulation without washing (Figures 5 and S22).
Figure 5 Staining of P. aeruginosa PAO1 biofilms grown under flow conditions with compound supplementation to the medium. Biofilm staining with (A) fluorescein divalent probe 17, (B) fluorescein control 24, (C) BODIPY divalent probe 19, and (D) BDP FL azide control 18 was monitored after 4 h of accumulation under constant flow (3 mL/h) of LB media containing 500 nM of respective compound. Retention of imaging compounds is shown after a subsequent wash period for 30 min with medium (3 mL/h, no compound). Images were recorded by using a fluorescence microscope. CLSM was performed for (E) BODIPY divalent probe 19 and the control (F) BDP FL azide 18 after 4 h of accumulation. Green signal originates from fluorescently labeled probes 17 and 19 and controls 24 and 18. P. aeruginosa constitutively expressing mCherry from pMP7605^56 is shown in red. Z-Stack size, 2 μm. Scale bar = 50 μm.
In vitro biofilm staining under flow conditions
The flow cell experiment was set up in analogy to Ghanbari et al. and in this study, optimized and established for biofilm staining.25 In principle, the experiment is based on an inlet connected to a medium source, a peristaltic pump providing constant medium flow, a flow chamber enabling analysis of bacterial growth and an outlet (waste container/bottle).
The medium used in the flow system was LB diluted by factor 5 containing 60 µg/mL
Gm. Silicone tubings 1.6 mm (ibidi, Germany) were used transporting medium from inlet to the peristaltic pump (Watson-Marlow Fluid Technology Solutions). Stopper hoses (CarlRoth) placed in peristaltic pump were coupled to silicone tubes via connectors (ibidi, Germany).
Stopper hoses are connected to bubble traps (obtained by Claus Sternberg, DTU Copenhagen) via 0.8 mm silicone tubing (ibidi, Germany). Bubble traps were used to remove air from the medium flow and to avoid biofilm disruption. Downstream from the bubble traps, the flow cell (μ-Slide VI 0.4 ibiTreat, ibidi, Germany) was placed into the system and connected to 1.6 mm silicone tubes (ibidi, Germany). The outlet is leading the medium from flow chamber to a waste […]
In order to inoculate the flow cell with P. aeruginosa PAO1 mCherry (pMP7605)23 the silicone tubes upstream and downstream of the flow chamber were pinched off by using commercial plastic clamps. The medium flow was stopped and the flow cell was inoculated by injecting 300 µL of the bacterial suspension (OD600nm of 0.1) into the silicone tubing upstream of the flow chamber. For this, a cannula (0.30 x 12 mm, Sterican) was used. The injection point was sealed with silicone glue. After bacterial settling time of 30 min, the flow was started again and clamps were removed. Growth temperature was regulated by using a heat system (ibidi, […]
Germany). […]

[2] = system: P. aeruginosa PAO1 biofilms; assay: In vitro biofilm staining under flow conditions, injection method; type: cell-based, Pseudomonas aeruginosa; details: 17 μM in channel, 10 min incubation, then flow 3 mL/h for 10-20 min
Protocol: as §1
Two different staining methods were evaluated for the imaging of P. aeruginosa PAO1 biofilms: (I) direct injection of the imaging compounds into the flow system or (II) compound supplementation into the medium and gradual accumulation at the biofilm (Figure S18). […] The flow of compounds 17 and 24 and their arrival in the flow cells were monitored using a fluorescence microscope attached to the flow system. […]
Figure 4 Staining of P. aeruginosa PAO1 biofilms under flow following the injection method. […] Pictures of the same aggregates were recorded prior to compound injection (t−10), during a 10 min incubation period without flow (t0) and during the wash period (constant flow, 3 mL/h) at different time points t5, t10, t15, and t20 (5, 10, 15, and 20 min) using a fluorescence microscope. […]

## O=C(CCc1ccc(O[C@@H]2O[C@H](CO)[C@H](O)[C@H](O)[C@H]2O)cc1)Nc1ccc(CN(CCc2cn(CCOCCOCCOCCNC(=S)Nc3ccc4c(c3)C(=O)OC43c4ccc(O)cc4Oc4cc(O)ccc43)nn2)Cc2ccc(NC(=O)CCc3ccc(O[C@@H]4O[C@H](CO)[C@H](O)[C@H](O)[C@H]4O)cc3)cc2)cc1 [compound 17]
[1]; 500 nM in medium, 4 h, fluorescence microscope
  Biofilm staining after accumulation: successfully stained PAO1 biofilms
[1]; after 4 h accumulation at 500 nM, 30 min wash, no compound
  Retention at biofilm after wash: still visible at a lower intensity
[2]
  Retention of fluorescence at biofilm during wash: retained at the P. aeruginosa biofilm aggregates
